# Residues, ends and D or L forms follow the SMILES beside them.
# System: E. coli O157:H7
# Assay type: cell-based, Escherichia coli
# Details: screening-stage peptides tested at 1, 6, 12 and 25 μg/mL
# Procedure, shortened: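 Tandem-repeat aggregation-prone-region peptides from DMSO stocks were tested for growth inhibition of E. coli O157:H7 at 1, 6, 12 and 25 μg/mL.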
row,SMILES,E. coli O157 (apparent MIC in screen)
1,CC(C)C[C@H](NC(=O)CNC(=O)[C@H](CC(C)C)NC(=O)[C@@H](NC(=O)[C@H](C)NC(=O)[C@H](CCCNC(=N)N)NC(=O)[C@@H]1CCCN1C(=O)[C@H](CCCNC(=N)N)NC(=O)[C@H](CCCNC(=N)N)NC(=O)[C@H](C)NC(=O)[C@H](CC(C)C)NC(=O)[C@H](CC(C)C)NC(=O)CNC(=O)[C@H](CCCNC(=N)N)NC(=O)[C@@H](NC(=O)[C@H](C)NC(=O)[C@@H](N)CCCNC(=N)N)C(C)C)C(C)C)C(=O)N[C@@H](CC(C)C)C(=O)N[C@@H](C)C(=O)N[C@@H](CCCNC(=N)N)C(=O)N[C@@H](CCCNC(=N)N)C(=O)O [Peptide P88] (H-RAVRGLLARRPRAVLGLLARR-OH; N-terminus and C-terminus assumed),25 µg/mL
2,CC(C)C[C@H](NC(=O)CNC(=O)[C@H](CC(C)C)NC(=O)[C@@H](NC(=O)[C@H](C)NC(=O)[C@H](CCCNC(=N)N)NC(=O)[C@@H]1CCCN1C(=O)[C@H](CCCNC(=N)N)NC(=O)[C@H](CCCNC(=N)N)NC(=O)[C@H](C)NC(=O)[C@H](CC(C)C)NC(=O)[C@H](CC(C)C)NC(=O)[C@H](CCCNC(=N)N)NC(=O)[C@H](CC(C)C)NC(=O)[C@@H](NC(=O)[C@H](C)NC(=O)[C@@H](N)CCCNC(=N)N)C(C)C)C(C)C)C(=O)N[C@@H](CC(C)C)C(=O)N[C@@H](C)C(=O)N[C@@H](CCCNC(=N)N)C(=O)N[C@@H](CCCNC(=N)N)C(=O)O [Peptide P113] (H-RAVLRLLARRPRAVLGLLARR-OH; N-terminus and C-terminus assumed),25 µg/mL
3,CC(C)C[C@H](NC(=O)CNC(=O)[C@@H](NC(=O)[C@H](CC(C)C)NC(=O)[C@H](CCCNC(=N)N)NC(=O)[C@@H]1CCCN1C(=O)[C@H](CCCNC(=N)N)NC(=O)[C@H](CCCNC(=N)N)NC(=O)CNC(=O)[C@H](CC(C)C)NC(=O)[C@@H](NC(=O)[C@H](CC(C)C)NC(=O)CNC(=O)[C@@H](NC(=O)[C@H](CC(C)C)NC(=O)[C@@H](N)CCCNC(=N)N)C(C)C)C(C)C)C(C)C)C(=O)N[C@H](C(=O)N[C@@H](CC(C)C)C(=O)NCC(=O)N[C@@H](CCCNC(=N)N)C(=O)N[C@@H](CCCNC(=N)N)C(=O)O)C(C)C [Peptide P50] (H-RLVGLVLGRRPRLVGLVLGRR-OH; N-terminus and C-terminus assumed),6 µg/mL
4,CC(C)C[C@H](NC(=O)CNC(=O)[C@H](CCCNC(=N)N)NC(=O)[C@@H]1CCCN1C(=O)[C@H](CCCNC(=N)N)NC(=O)[C@H](CCCNC(=N)N)NC(=O)[C@H](C)NC(=O)[C@H](CC(C)C)NC(=O)[C@H](CCCNC(=N)N)NC(=O)[C@H](C)NC(=O)[C@H](CC(C)C)NC(=O)[C@H](CC(C)C)NC(=O)CNC(=O)[C@@H](N)CCCNC(=N)N)C(=O)N[C@@H](CC(C)C)C(=O)N[C@@H](C)C(=O)N[C@@H](CC(C)C)C(=O)N[C@@H](CC(C)C)C(=O)N[C@@H](C)C(=O)N[C@@H](CCCNC(=N)N)C(=O)N[C@@H](CCCNC(=N)N)C(=O)O [Peptide P89] (H-RGLLARLARRPRGLLALLARR-OH; N-terminus and C-terminus assumed),12 µg/mL
5,CC(C)C[C@H](NC(=O)[C@H](C)NC(=O)[C@H](CCCNC(=N)N)NC(=O)[C@@H]1CCCN1C(=O)[C@H](CCCNC(=N)N)NC(=O)[C@H](CCCNC(=N)N)NC(=O)[C@H](CC(C)C)NC(=O)[C@H](CC(C)C)NC(=O)[C@H](CC(C)C)NC(=O)[C@H](CO)NC(=O)[C@@H](NC(=O)[C@H](CC(C)C)NC(=O)[C@H](C)NC(=O)[C@@H](N)CCCNC(=N)N)C(C)C)C(=O)N[C@H](C(=O)N[C@@H](CO)C(=O)N[C@@H](CC(C)C)C(=O)N[C@@H](CC(C)C)C(=O)N[C@@H](CC(C)C)C(=O)N[C@@H](CCCNC(=N)N)C(=O)N[C@@H](CCCNC(=N)N)C(=O)O)C(C)C [Peptide P58] (H-RALVSLLLRRPRALVSLLLRR-OH; N-terminus and C-terminus assumed),12 µg/mL
6,CC(C)C[C@H](NC(=O)CNC(=O)[C@H](CCCNC(=N)N)NC(=O)[C@@H]1CCCN1C(=O)[C@H](CCCNC(=N)N)NC(=O)[C@H](CCCNC(=N)N)NC(=O)[C@H](CCC(N)=O)NC(=O)[C@H](CC(C)C)NC(=O)[C@H](C)NC(=O)[C@H](CC(C)C)NC(=O)[C@H](CCCNC(=N)N)NC(=O)[C@H](CC(C)C)NC(=O)CNC(=O)[C@@H](N)CCCNC(=N)N)C(=O)N[C@@H](CC(C)C)C(=O)N[C@@H](CC(C)C)C(=O)N[C@@H](C)C(=O)N[C@@H](CC(C)C)C(=O)N[C@@H](CCC(N)=O)C(=O)N[C@@H](CCCNC(=N)N)C(=O)N[C@@H](CCCNC(=N)N)C(=O)O [Peptide P99] (H-RGLRLALQRRPRGLLLALQRR-OH; N-terminus and C-terminus assumed),25 µg/mL
7,CC(C)C[C@H](NC(=O)CNC(=O)[C@H](CCCNC(=N)N)NC(=O)[C@@H]1CCCN1C(=O)[C@H](CCCNC(=N)N)NC(=O)[C@H](CCCNC(=N)N)NC(=O)[C@H](C)NC(=O)[C@H](CCCNC(=N)N)NC(=O)[C@H](CC(C)C)NC(=O)[C@H](C)NC(=O)[C@H](CC(C)C)NC(=O)[C@H](CC(C)C)NC(=O)CNC(=O)[C@@H](N)CCCNC(=N)N)C(=O)N[C@@H](CC(C)C)C(=O)N[C@@H](C)C(=O)N[C@@H](CC(C)C)C(=O)N[C@@H](CC(C)C)C(=O)N[C@@H](C)C(=O)N[C@@H](CCCNC(=N)N)C(=O)N[C@@H](CCCNC(=N)N)C(=O)O [Peptide P114] (H-RGLLALRARRPRGLLALLARR-OH; N-terminus and C-terminus assumed),25 µg/mL
8,CC(C)C[C@H](NC(=O)[C@H](C)NC(=O)[C@H](CC(C)C)NC(=O)[C@@H](NC(=O)[C@H](C)NC(=O)[C@H](CO)NC(=O)[C@H](CCCNC(=N)N)NC(=O)[C@@H]1CCCN1C(=O)[C@H](CCCNC(=N)N)NC(=O)[C@H](CCCNC(=N)N)NC(=O)[C@H](CC(C)C)NC(=O)[C@H](CC(C)C)NC(=O)[C@H](C)NC(=O)[C@H](CC(C)C)NC(=O)[C@@H](NC(=O)[C@H](C)NC(=O)[C@H](CO)NC(=O)[C@@H](N)CCCNC(=N)N)C(C)C)C(C)C)C(=O)N[C@@H](CC(C)C)C(=O)N[C@@H](CCCNC(=N)N)C(=O)N[C@@H](CCCNC(=N)N)C(=O)O [Peptide P18] (H-RSAVLALLRRPRSAVLALLRR-OH; N-terminus and C-terminus assumed),12 µg/mL
9,CC(C)C[C@H](NC(=O)[C@H](C)NC(=O)[C@H](CC(C)C)NC(=O)[C@H](CCCNC(=N)N)NC(=O)[C@@H]1CCCN1C(=O)[C@H](CCCNC(=N)N)NC(=O)[C@H](CCCNC(=N)N)NC(=O)[C@H](CC(C)C)NC(=O)[C@H](CC(C)C)NC(=O)[C@H](CC(C)C)NC(=O)[C@H](CCCNC(=N)N)NC(=O)[C@H](CC(C)C)NC(=O)[C@H](C)NC(=O)[C@H](CC(C)C)NC(=O)[C@@H](N)CCCNC(=N)N)C(=O)N[C@@H](C)C(=O)N[C@@H](CC(C)C)C(=O)N[C@@H](CC(C)C)C(=O)N[C@@H](CC(C)C)C(=O)N[C@@H](CCCNC(=N)N)C(=O)N[C@@H](CCCNC(=N)N)C(=O)O [Peptide P79] (H-RLALRLLLRRPRLALALLLRR-OH; N-terminus and C-terminus assumed),12 µg/mL
10,CC(C)C[C@H](NC(=O)[C@H](CC(C)C)NC(=O)[C@H](CC(C)C)NC(=O)[C@H](CCCNC(=N)N)NC(=O)[C@@H]1CCCN1C(=O)[C@H](CCCNC(=N)N)NC(=O)[C@H](CCCNC(=N)N)NC(=O)[C@@H](NC(=O)[C@H](CC(C)C)NC(=O)[C@H](CC(C)C)NC(=O)[C@H](CO)NC(=O)[C@H](CCCNC(=N)N)NC(=O)[C@H](CC(C)C)NC(=O)[C@H](CC(C)C)NC(=O)[C@@H](N)CCCNC(=N)N)C(C)C)C(=O)N[C@@H](CO)C(=O)N[C@@H](CC(C)C)C(=O)N[C@@H](CC(C)C)C(=O)N[C@H](C(=O)N[C@@H](CCCNC(=N)N)C(=O)N[C@@H](CCCNC(=N)N)C(=O)O)C(C)C [Peptide P101] (H-RLLRSLLVRRPRLLLSLLVRR-OH; N-terminus and C-terminus assumed),12 µg/mL
11,CC(C)C[C@H](NC(=O)[C@H](C)NC(=O)[C@H](CCCNC(=N)N)NC(=O)[C@@H]1CCCN1C(=O)[C@H](CCCNC(=N)N)NC(=O)[C@H](CCCNC(=N)N)NC(=O)[C@H](CC(C)C)NC(=O)[C@H](CC(C)C)NC(=O)[C@@H](NC(=O)[C@@H](NC(=O)[C@H](CC(C)C)NC(=O)[C@H](CC(C)C)NC(=O)[C@H](C)NC(=O)[C@@H](N)CCCNC(=N)N)[C@@H](C)O)[C@@H](C)O)C(=O)N[C@@H](CC(C)C)C(=O)N[C@H](C(=O)N[C@H](C(=O)N[C@@H](CC(C)C)C(=O)N[C@@H](CC(C)C)C(=O)N[C@@H](CCCNC(=N)N)C(=O)N[C@@H](CCCNC(=N)N)C(=O)O)[C@@H](C)O)[C@@H](C)O [Peptide P5] (H-RALLTTLLRRPRALLTTLLRR-OH; N-terminus and C-terminus assumed),12 µg/mL
12,CC[C@H](C)[C@H](NC(=O)[C@H](CCCNC(=N)N)NC(=O)[C@@H]1CCCN1C(=O)[C@H](CCCNC(=N)N)NC(=O)[C@H](CCCNC(=N)N)NC(=O)[C@H](CC(N)=O)NC(=O)[C@H](CC(C)C)NC(=O)[C@@H](NC(=O)[C@H](CCCNC(=N)N)NC(=O)[C@@H](NC(=O)[C@@H](NC(=O)[C@@H](NC(=O)[C@@H](N)CCCNC(=N)N)[C@@H](C)CC)C(C)C)[C@@H](C)O)[C@@H](C)O)C(=O)N[C@H](C(=O)N[C@H](C(=O)N[C@H](C(=O)N[C@H](C(=O)N[C@@H](CC(C)C)C(=O)N[C@@H](CC(N)=O)C(=O)N[C@@H](CCCNC(=N)N)C(=O)N[C@@H](CCCNC(=N)N)C(=O)O)[C@@H](C)O)C(C)C)[C@@H](C)O)C(C)C [Peptide P125] (H-RIVTRTLNRRPRIVTVTLNRR-OH; N-terminus and C-terminus assumed),25 µg/mL
13,CC(C)C[C@H](NC(=O)[C@H](C)NC(=O)[C@H](CC(C)C)NC(=O)[C@@H](NC(=O)[C@H](C)NC(=O)[C@H](CO)NC(=O)[C@H](CCCNC(=N)N)NC(=O)[C@@H]1CCCN1C(=O)[C@H](CCCNC(=N)N)NC(=O)[C@H](CCCNC(=N)N)NC(=O)[C@H](CC(C)C)NC(=O)[C@H](CC(C)C)NC(=O)[C@H](C)NC(=O)[C@H](CC(C)C)NC(=O)[C@H](CCCNC(=N)N)NC(=O)[C@H](C)NC(=O)[C@H](CO)NC(=O)[C@@H](N)CCCNC(=N)N)C(C)C)C(=O)N[C@@H](CC(C)C)C(=O)N[C@@H](CCCNC(=N)N)C(=O)N[C@@H](CCCNC(=N)N)C(=O)O [Peptide P93] (H-RSARLALLRRPRSAVLALLRR-OH; N-terminus and C-terminus assumed),25 µg/mL
